From PMC6433232, “Targeting mitochondria in cancer therapy could provide a basis for the selective anti-cancer activity” (PLoS ONE, 2019)
Read-outs that look alike come from different tables or passages of the source.

Test system: primary acute myeloid leukemia (AML) cells obtained from patients
Assay: Kinase inhibitor library screening with and without NSC130362, primary AML cells
Assay type: cell-based, Human
[1] = ratio of EC50 for inhibitor to EC50 for inhibitor/NSC130362 combination, NSC130362 10 μM, Screen N 1
[2] = ratio of EC50 for inhibitor to EC50 for inhibitor/NSC130362 combination, NSC130362 10 μM, Screen N 2
[3] = ratio of EC50 for inhibitor to EC50 for inhibitor/NSC130362 combination, NSC130362 10 μM, Screen N 3

SMILES | EC50 decrease, fold (Screen N 1) [1] [fold] | EC50 decrease, fold (Screen N 2) [2] [fold] | EC50 decrease, fold (Screen N 3) [3] [fold] | EC50 decrease, fold (Screen N 1) [fold] | EC50 decrease, fold (Screen N 2) [fold] | EC50 decrease, fold (Screen N 3) [fold]
CN1CCN(c2ccc3nc(-c4c(N)c5c(F)cccc5[nH]c4=O)[nH]c3c2)CC1 [Dovitinib (CHIR-258)] | 2.6 | 1.0 | 96.7 |  |  | 
CN(NC(=O)CC(=O)NN(C)C(=S)c1ccccc1)C(=S)c1ccccc1 [Elesclomol] | 1.1 | 302.2 | 1.1 |  |  | 
c1cn2cc(-c3ccc4cn[nH]c4c3)nc(Nc3ccc(N4CCOCC4)cc3)c2n1 [Entospletinib (GS-9973)] | 16.8 | 1.0 | 0.131 |  |  | 
C#Cc1cccc(Nc2ncnc3cc(OCCOC)c(OCCOC)cc23)c1 [Erlotinib] |  | 1.0 |  |  |  | 
CN1CC[C@H](c2c(O)cc(O)c3c(=O)cc(-c4ccccc4Cl)oc23)[C@H](O)C1 [Flavopiridol] | 2.0 | 1.1 | 0.0683 |  |  | 
COc1cc2c(Oc3ccc(NC(=O)C4(C(=O)Nc5ccc(F)cc5)CC4)cc3F)ccnc2cc1OCCCN1CCOCC1 [Foretinib (XL880)] | 0.666 | 1.0 | 2.2 |  |  | 
CC[C@H](Nc1ncnc2[nH]cnc12)c1nc2cccc(F)c2c(=O)n1-c1ccccc1 [GS-1101 (CAL-101)] | 506.3 | 1.0 | 356.4 |  |  | 
CNC(=O)c1c(F)cccc1Nc1nc(Nc2cc3c(cc2OC)CCN3C(=O)CN(C)C)nc2[nH]ccc12 [GSK-1838705A] | 257.7 | 1.0 | 522.0 |  |  | 
CCc1cc(Nc2nccc(-c3c(-c4ccc(OC)c(C(=O)Nc5c(F)cccc5F)c4)nc4ccccn34)n2)c(OC)cc1N1CCC(N2CCN(S(C)(=O)=O)CC2)CC1 [GSK-1904529A] | 41.6 | 1.0 | 44.8 |  |  | 
COc1ccc(COc2ccc(Cc3cnc(N)nc3N)cc2OC)cc1 [GW-2580] |  | 1.0 |  |  |  | 
CCc1nc(C(N)=O)c(Nc2ccc(N3CCC(N4CCN(C)CC4)CC3)c(OC)c2)nc1NC1CCOCC1 [Gilteritinib (ASP-2215)] | 0.2 |  | 1.3 |  |  | 
COc1cc(C(=O)O)ccc1NC(=O)[C@@H]1N[C@@H](CC(C)(C)C)[C@](C#N)(c2ccc(Cl)cc2F)[C@H]1c1cccc(Cl)c1F [Idesanutlin] |  | 1.0 |  |  |  | 
CC(C)NC[C@@H](C(=O)N1CCN(c2ncnc3c2[C@H](C)C[C@H]3O)CC1)c1ccc(Cl)cc1 [Ipatasertib (GDC-0068)] |  | 1.0 |  |  |  | 
COc1cc(Oc2ccnc3cc(OC)c(OC)cc23)ccc1NC(=O)NC(C)c1nccs1 (stereo not drawn) [KI20227] | 0.6 | 1.0 | 1.0 |  |  | 
O=c1cc(-c2cccc3c2Sc2ccccc2S3)oc(N2CCOCC2)c1 [KU-55933] | 0.222 | 1.0 | 959.3 |  |  | 
O=C(c1ccc(/C=C/c2n[nH]c3ccccc23)cc1)N1CCNCC1 [KW-2449] | 1.6 | 1.0 | 0.9 |  |  | 
CN(C)C[C@@H]1CCn2cc(c3ccccc32)C2=C(C(=O)NC2=O)c2cn(c3ccccc23)CCO1 [LY-333531] | 3.3 | 1.0 | 1.1 |  |  | 
CS(=O)(=O)CCNCc1ccc(-c2ccc3ncnc(Nc4ccc(OCc5cccc(F)c5)c(Cl)c4)c3c2)o1 [Lapatinib] |  | 1.0 |  |  |  | 
Nc1cccc2c1CN(C1CCC(=O)NC1=O)C2=O (stereo not drawn) [Lenalidomide] |  |  | 1.4 |  |  | 
COc1cc2nccc(Oc3ccc(NC(=O)NC4CC4)c(Cl)c3)c2cc1C(N)=O [Lenvatinib] | 1.9 | 1.0 | 1.5 |  |  | 
Cc1ccc(F)c(NC(=O)Nc2ccc(-c3cccc4[nH]nc(N)c34)cc2)c1 [Linifanib (ABT-869)] | 261.0 | 1.4 | 1.0 |  |  | 
CC[C@H](C)C(=O)O[C@H]1C[C@@H](C)C=C2C=C[C@H](C)[C@H](CC[C@@H]3C[C@@H](O)CC(=O)O3)[C@H]21 [Lovastatin] |  |  | 1.0 |  |  | 
COc1c(Cl)cc2c([nH]c3cnccc32)c1NC(=O)c1cccnc1C [MLN120B] | 6.2 | 1.0 | 121.2 |  |  | 
Cc1ccc(NC(=O)c2ccc(CN3CCN(C)CC3)cc2)cc1Nc1nc(-c2cccnc2)cs1 [Masitinib (AB-1010)] |  |  |  | 0.174 | 1.0 | 3.7
CC1(C)CNc2cc(NC(=O)c3cccnc3NCc3ccncc3)ccc21 [Motesanib (AMG-706)] | 1.0 | 1.0 | 1.0 |  |  | 
Nc1ncnc2c1c(-c1cccc(OCc3ccccc3)c1)cn2C1CC(CN2CCCC2)C1 (stereo not drawn) [NVP-ADW742] | 3.1 | 1.0 | 1.0 |  |  | 
COc1cc(N2CCC(N3CCN(C)CC3)CC2)ccc1Nc1ncc(Cl)c(Nc2ccccc2S(=O)(=O)C(C)C)n1 [NVP-TAE684] | 0.55 | 1.0 | 0.755 |  |  | 
CCOc1cc2ncc(C#N)c(Nc3ccc(OCc4ccccn4)c(Cl)c3)c2cc1NC(=O)/C=C/CN(C)C [Neratinib (HKI-272)] | 5.7 | 1.0 | 1.0 |  |  | 
Cc1cn(-c2cc(NC(=O)c3ccc(C)c(Nc4nccc(-c5cccnc5)n4)c3)cc(C(F)(F)F)c2)cn1 [Nilotinib] |  | 1.0 | 1.0 |  |  | 
COc1ccc(C2=N[C@@H](c3ccc(Cl)cc3)[C@@H](c3ccc(Cl)cc3)N2C(=O)N2CCNC(=O)C2)c(OC(C)C)c1 [Nutlin 3a] | 0.1 | 1.0 | 0.9 |  |  | 

Continued, in another order:

EC50 decrease, fold (Screen N 1) [1] [fold] | EC50 decrease, fold (Screen N 2) [2] [fold] | EC50 decrease, fold (Screen N 3) [3] [fold] | SMILES | EC50 decrease, fold (Screen N 1) [fold] | EC50 decrease, fold (Screen N 2) [fold] | EC50 decrease, fold (Screen N 3) [fold]
 | 1.0 |  | N[C@@H]1CCCN(c2c(Br)cnc3[nH]cc(NC(=O)C4CC4)c23)C1 [GDC-0575] |  |  | 
0.9 | 1.0 | 952.6 | OCCn1cc(-c2ccc3c(c2)CC/C3=N\O)c(-c2ccncc2)n1 [GDC-0879] |  |  | 
 | 1.0 |  | Cn1nccc1Nc1nccc(-c2ccn([C@H](CO)c3ccc(Cl)c(F)c3)c(=O)c2)n1 [GDC-0994] |  |  | 
0.165 | 1.0 | 1.1 | CCn1c(-c2nonc2N)nc2c(C#CC(C)(C)O)ncc(OC[C@H]3CCCNC3)c21 [GSK690693] |  |  | 
0.0632 | 0.9 | 0.0858 | CC(C)n1nc(-c2ccc3oc(N)nc3c2)c2c(N)ncnc21 [INK-128] |  |  | 
 | 1.0 |  | Cc1ccc2nc(NC(=O)CSc3nc4c(c(=O)n3-c3ccccc3)SCC4)sc2c1 [IWP2] |  |  | 
 | 1.0 |  | O=C(Nc1cccc2cccnc12)c1ccc(N2C(=O)[C@@H]3[C@H](C2=O)[C@@H]2C=C[C@H]3C2)cc1 [IWR1] |  |  | 
3.7 | 1.0 | 0.182 | Nc1nc(Nc2ccc(S(N)(=O)=O)cc2)nn1C(=O)c1c(F)cccc1F [JNJ-7706621] |  |  | 
0.3 | 1.0 | 2.3 | CN(C)CC(=O)N1CCC(c2ccc(NC(=O)c3nc(C#N)c[nH]3)c(C3=CCCCC3)c2)CC1 [JNJ-28312141] |  |  | 
7.6 | 1.0 | 0.00829 | Cn1cc(-c2ccc3nnc(C(F)(F)c4ccc5ncccc5c4)n3n2)cn1 [JNJ-38877605] |  |  | 
 | 1.0 |  | Cc1cc(-c2ncc(CC(=O)Nc3ccc(-c4cnccn4)cn3)cc2C)ccn1 [LGK974] |  |  | 
6.0 | 1.0 | 97.6 | COCCNCc1ccc(-c2cc3nccc(Oc4ccc(NC(=S)NC(=O)Cc5ccc(F)cc5)cc4F)c3s2)nc1 [MGCD-265] |  |  | 
15.9 | 1.0 | 1.0 | NC1(c2ccc(-c3nc4ccn5c(=O)[nH]nc5c4cc3-c3ccccc3)cc2)CCC1 [MK-2206] |  |  | 
1.3 | 1.0 | 0.001 | O=C(O)c1ccc(Nc2ncc3c(n2)-c2ccc(Cl)cc2C(c2c(F)cccc2F)=NC3)cc1 [MLN8054] |  |  | 
 | 1.0 |  | COc1cc(OC)c(/C=C/S(=O)(=O)Cc2ccc(OC)c(NCC(=O)O)c2)c(OC)c1 [ON-01910] |  |  | 
 | 0.8 |  | Cc1sc2c(c1C)C(c1ccc(Cl)cc1)=N[C@@H](CC(=O)Nc1ccc(O)cc1)c1nnc(C)n1-2 [OTX-015] |  |  | 
0.9 | 1.0 | 5.1 | CSc1cccc(Nc2ncc3cc(-c4c(Cl)cccc4Cl)c(=O)n(C)c3n2)c1 [PD173955] |  |  | 
